This note sets out measurements from ChEMBL document CHEMBL5032489, “Selective Discovery of GPCR Ligands within DNA-Encoded Chemical Libraries Derived from Natural Products: A Case Study on Antagonists of Angiotensin II Type I Receptor” (J Med Chem, 2021).

Calls of active or inactive are those of the source. The calls are words filed in the database; no cut-off is given here.

The target of data set [1] is T1, Type-1 angiotensin II receptor (Homo sapiens) (UniProt P30556).
T1 sequence (whole entry): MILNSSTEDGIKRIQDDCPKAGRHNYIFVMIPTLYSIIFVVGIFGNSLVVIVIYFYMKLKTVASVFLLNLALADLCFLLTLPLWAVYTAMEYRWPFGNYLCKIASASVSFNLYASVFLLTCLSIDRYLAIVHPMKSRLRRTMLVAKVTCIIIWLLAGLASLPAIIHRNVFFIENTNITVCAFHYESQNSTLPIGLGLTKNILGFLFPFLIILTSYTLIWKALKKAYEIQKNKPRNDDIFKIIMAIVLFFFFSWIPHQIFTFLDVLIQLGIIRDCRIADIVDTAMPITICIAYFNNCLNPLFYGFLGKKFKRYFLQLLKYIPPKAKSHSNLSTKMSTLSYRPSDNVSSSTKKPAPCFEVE
The data set can be described thus: (§1) Displacement of [125-I]-[Sar1, AngII from AT1R (unknown origin) expressed in Escherichia coli BL 21 (DE3) incubated for 2 hrs by radioimmunoassay.

Data set [2] deals with T2, Type-1 angiotensin II receptor (Homo sapiens, UniProt P30556).
T2 sequence (P30556 whole entry): T1 sequence (whole entry)
The description is as §1.

For data set [3], the target named is T2, Type-1 angiotensin II receptor. The data set can be described thus: Binding affinity to AT1R (unknown origin) expressed in Escherichia coli strain BL 21 (DE3) incubated for 20 mins by SDS PAGE analysis.
For data set [4], the system named is Rattus norvegicus. The data set can be described thus: Antihypertensive activity against two-kidney two clip renovascular hypertensive Sprague-Dawley rat model assessed as decrease in diastolic blood pressure at 15 to 30 mg/kg, po measured after 4 days of treatment by noninvasive sphygmomanometry. It is filed as functional, organism-based. The settings on record: dose 15-30 mg/kg, time 4.0 day.

Data set [5] can be described thus: Cmax in two-kidney two clip renovascular hypertensive Sprague-Dawley rat model at 30 mg/kg, po by HPLC-MS/MS analysis. Format: ADME, organism-based. The arrangement: route oral, dose 30 mg/kg. The settings on record: in vivo.
Data set [6] in a line: Cmax in two-kidney two clip renovascular hypertensive Sprague-Dawley rat model at 15 mg/kg, po by HPLC-MS/MS analysis. It is filed as ADME, organism-based. The settings on record: in vivo. The arrangement: route oral, dose 15 mg/kg.
A short description of data set [7]: Cmax in two-kidney two clip renovascular hypertensive Sprague-Dawley rat model at 5 mg/kg, po by HPLC-MS/MS analysis. It is filed as ADME, organism-based. The arrangement: route oral, dose 5 mg/kg. The settings on record: in vivo.
Data set [8] in a line: AUC (0-t) in two-kidney two clip renovascular hypertensive Sprague-Dawley rat model at 30 mg/kg, po by HPLC-MS/MS analysis. Format: ADME, organism-based. The arrangement: dose 30 mg/kg. The settings on record: in vivo.
Data set [9] in a line: AUC (0-t) in two-kidney two clip renovascular hypertensive Sprague-Dawley rat model at 15 mg/kg, po by HPLC-MS/MS analysis. Format: ADME, organism-based. The arrangement: dose 15 mg/kg. The settings on record: in vivo.
The nature of data set [10]: AUC (0-t) in two-kidney two clip renovascular hypertensive Sprague-Dawley rat model at 5 mg/kg, po by HPLC-MS/MS analysis. The settings on record: in vivo. It is filed as ADME, organism-based. The arrangement: dose 5 mg/kg.
A short description of data set [11]: AUC (0-infinity) in two-kidney two clip renovascular hypertensive Sprague-Dawley rat model at 30 mg/kg, po by HPLC-MS/MS analysis. Format: ADME, organism-based. More on the design: route oral, time infinity, dose 30 mg/kg. Conditions: in vivo.
The nature of data set [12]: AUC (0-infinity) in two-kidney two clip renovascular hypertensive Sprague-Dawley rat model at 15 mg/kg, po by HPLC-MS/MS analysis. It is filed as ADME, organism-based. More on the design: time infinity, route oral, dose 15 mg/kg. Conditions: in vivo.
Data set [13] can be described thus: AUC (0-infinity) in two-kidney two clip renovascular hypertensive Sprague-Dawley rat model at 5 mg/kg, po by HPLC-MS/MS analysis. It is filed as ADME, organism-based. The arrangement: route oral, time infinity, dose 5 mg/kg. The settings on record: in vivo.
Data set [14] relates to Rattus norvegicus. The data set can be described thus: Antihypertensive activity against two-kidney two clip renovascular hypertensive Sprague-Dawley rat model assessed as decrease in systolic blood pressure at 15 to 30 mg/kg, po measured after 4 days of treatment by noninvasive sphygmomanometry. It is filed as functional, organism-based. The settings on record: dose 15-30 mg/kg, time 4.0 day.

Data set [15] is described as follows: Toxicity in two-kidney two clip renovascular hypertensive Sprague-Dawley rat model assessed as heart rate at 15 to 30 mg/kg, po measured after 4 days of treatment by noninvasive sphygmomanometry. It is filed as organism-based. The settings on record: in vivo, 96 h, dose 15-30 mg/kg, time 4 day.
In data set [16] the test system is Rattus norvegicus. The data set can be described thus: Antihypertensive activity against two-kidney two clip renovascular hypertensive Sprague-Dawley rat model assessed as decrease in systolic blood pressure at 8.3 mg/kg, po measured after 4 days of treatment by noninvasive sphygmomanometry. Format: functional, organism-based. The settings on record: time 4.0 day.

On to `NC[C@H](O)c1ccc(O)c(O)c1`, for which, in [1], the outcome was inactive.
Consider `Cc1cc(Cn2cnc3c2C[C@@H](C(=O)O)N(C(=O)C(c2ccccc2)c2ccccc2)C3)ccc1N(C)C`, for which the outcome in data set [1] was inactive.
As a reminder, the IC50 is the midpoint of a concentration-inhibition curve. Lower therefore signals greater potency in that assay. `O=C(O)/C=C/c1ccc(O)c(O)c1` [CAFFEIC ACID] returned a half-maximal inhibitory concentration (IC50) in data set [2] of 125 nM.
The term Kd denotes the constant that tells how readily two partners part at equilibrium. Broadly, the Cmax is the highest concentration seen after dosing. As a reminder, the AUC is the area under the concentration-time curve, a measure of exposure. In [3], `CCOC(=O)[C@@H](Cc1ccc(F)cc1)NC(=O)[C@@H](CC1CCCCC1)NC(=O)[C@@H](C)NC(=O)/C=C/c1ccc(O)c(O)c1` displayed a Kd of 0.49 nM. Moreover, in data set [2], the half-inhibitory concentration (IC50) was 19.6 nM. In addition, the outcome in data set [4] and in [14] was Active. The highest concentration (Cmax) in [5] worked out at 446 ng/mL; in data set [6], 220 ng/mL; in data set [7], 80.6 ng/mL. The AUCt in data set [8] amounted to 34243 µg·min/L; in [9], 18123.5 µg·min/L; in [10], 5707.6 µg·min/L. In addition, the AUC in data set [11] came to 35096.1 µg·min/L; in data set [12], 19332.5 µg·min/L; in data set [13], 6088 µg·min/L. Further, in data set [15], the Activity result is listed as “Non-Toxic”.
With `CCCCC(=O)N(Cc1ccc(-c2ccccc2-c2nnn[nH]2)cc1)[C@H](C(=O)O)C(C)C`, the outcome in data set [16] was Active.
